ChEMBL document CHEMBL1201862, “PubChem BioAssay data set” (2004)
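Five compound concentrations were applied to cells in 96-well plates for 48 hours; endpoints were derived by simple linear interpolation of the resulting dose-response curve. GI50 = concentration required for 50% inhibition of growth.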 Calls of active or inactive are those of the source. No stated cut-off is given here; in the data, active = GI50 up to about 1.1 µM and inactive = higher.

How the values were obtained:
Assay in all cases: DTP human tumour cell line panel, 48 h
HCC 2998 = system: HCC 2998
HCT-116 = system: HCT-116
IGROV-1 = system: IGROV-1
KM12 = system: KM12
M14 = system: M14
Malme-3M = system: Malme-3M
NCI-H522 = system: NCI-H522
OVCAR-3 = system: OVCAR-3
RPMI-8226 = system: RPMI-8226
SF-295 = system: SF-295
SK-MEL-28 = system: SK-MEL-28
SK-OV-3 = system: SK-OV-3
SNB-19 = system: SNB-19
SNB-75 = system: SNB-75
SW-620 = system: SW-620
U-251 = system: U-251
UACC-257 = system: UACC-257
UACC-62 = system: UACC-62
UO-31 = system: UO-31
RXF 393 = system: RXF 393

Measured: GI50

CCOC(=O)C1=C(C)N(C2OC(COC(=O)c3ccccc3)C(OC(=O)c3ccccc3)C2OC(=O)c2ccccc2)C(=S)NC1c1ccccc1 (centres undefined)
inactive: HCC 2998 49.2 µM | HCT-116 29.9 µM | IGROV-1 46.8 µM | KM12 50.2 µM | M14 25.7 µM | Malme-3M 25.5 µM | NCI-H522 22.1 µM | OVCAR-3 21.9 µM | RPMI-8226 16.1 µM | SF-295 61.7 µM | SK-MEL-28 49.2 µM | SK-OV-3 60.1 µM | SNB-19 55.1 µM | SNB-75 30.4 µM | SW-620 33.3 µM | U-251 34.9 µM | UACC-257 33.5 µM | UACC-62 29.3 µM | UO-31 24.2 µM

O=C1C(Cl)N(c2cccc(Cl)c2)C1c1c[nH]c2ccccc12 (centres undefined)
inactive: HCT-116 > 100 µM | IGROV-1 > 100 µM | KM12 > 100 µM | M14 > 100 µM | Malme-3M > 100 µM | NCI-H522 > 100 µM | OVCAR-3 > 100 µM | RPMI-8226 > 100 µM | RXF 393 > 100 µM | SF-295 > 100 µM | SK-MEL-28 > 100 µM | SK-OV-3 > 100 µM | SNB-19 > 100 µM | SNB-75 > 100 µM | SW-620 > 100 µM | U-251 > 100 µM | UACC-257 > 100 µM | UACC-62 > 100 µM | UO-31 > 100 µM

Cc1ccc(-c2cc(-c3ccco3)c(C#N)c(=O)n2C2OC(CO)C(O)C(O)C2O)cc1 (centres undefined)
inactive: HCC 2998 > 100 µM | HCT-116 94.8 µM | IGROV-1 49.1 µM | KM12 84.5 µM | M14 67.5 µM | Malme-3M 41 µM | NCI-H522 44.5 µM | OVCAR-3 45.6 µM | RPMI-8226 73.3 µM | RXF 393 48.3 µM | SF-295 33.6 µM | SK-MEL-28 37 µM | SK-OV-3 28.7 µM | SNB-19 68.2 µM | SW-620 93.8 µM | U-251 33.3 µM | UACC-257 58.5 µM | UACC-62 42.3 µM | UO-31 59.6 µM

O=C(CC(C(=O)c1cccs1)c1ccc2c(c1)OCO2)c1ccc(Br)cc1 (centres undefined)
inactive: HCC 2998 > 100 µM | IGROV-1 > 100 µM | KM12 > 100 µM | M14 > 100 µM | Malme-3M > 100 µM | RPMI-8226 > 100 µM | SF-295 > 100 µM | SK-MEL-28 > 100 µM | SK-OV-3 > 100 µM | SNB-19 8.51 µM | SNB-75 > 100 µM | SW-620 > 100 µM | U-251 > 100 µM | UACC-257 > 100 µM | UACC-62 > 100 µM | UO-31 14.9 µM

CCOC(=O)C(Cc1ccccc1)NC(=O)OC(C)(C)C (centres undefined)
inactive: HCC 2998 > 100 µM | HCT-116 > 100 µM | IGROV-1 > 100 µM | KM12 > 100 µM | M14 > 100 µM | Malme-3M > 100 µM | NCI-H522 > 10 µM | OVCAR-3 > 100 µM | SF-295 > 100 µM | SK-MEL-28 > 100 µM | SK-OV-3 > 100 µM | SNB-19 > 100 µM | SNB-75 > 100 µM | SW-620 > 100 µM | U-251 > 100 µM | UACC-257 > 100 µM | UACC-62 > 100 µM | UO-31 > 100 µM

COc1ccc(-c2cc(-c3cc(OC)c(OC)c(OC)c3)cc(-c3cc4ccccc4oc3=O)n2)cc1
inactive: HCC 2998 17.3 µM | HCT-116 4.48 µM | IGROV-1 7.06 µM | KM12 12.6 µM | M14 16.6 µM | Malme-3M 5.77 µM | NCI-H522 6.85 µM | OVCAR-3 17 µM | RXF 393 3.24 µM | SF-295 4.99 µM | SK-OV-3 3.83 µM | SNB-19 10.2 µM | SNB-75 2.51 µM | SW-620 25.2 µM | U-251 3.54 µM | UACC-257 16.7 µM | UACC-62 12.5 µM | UO-31 8.28 µM

O=C1NC2=C(CCCC/C2=N\O)C12CCCCC2
inactive: HCC 2998 > 100 µM | HCT-116 > 100 µM | IGROV-1 > 100 µM | KM12 > 100 µM | M14 > 100 µM | Malme-3M > 100 µM | OVCAR-3 > 100 µM | RXF 393 > 100 µM | SF-295 > 100 µM | SK-MEL-28 > 100 µM | SK-OV-3 > 100 µM | SNB-19 > 100 µM | SNB-75 > 100 µM | SW-620 > 100 µM | U-251 > 100 µM | UACC-257 > 100 µM | UACC-62 > 100 µM | UO-31 > 100 µM

COC(=O)C12CC3CC(CC(C(=O)O)(C3)C1)C2
inactive: HCC 2998 > 100 µM | HCT-116 > 100 µM | IGROV-1 > 100 µM | KM12 > 100 µM | M14 > 100 µM | NCI-H522 > 100 µM | OVCAR-3 > 100 µM | RPMI-8226 > 100 µM | SF-295 > 100 µM | SK-MEL-28 > 100 µM | SK-OV-3 > 100 µM | SNB-19 > 100 µM | SNB-75 > 100 µM | SW-620 > 100 µM | U-251 > 100 µM | UACC-257 > 100 µM | UACC-62 > 100 µM | UO-31 > 100 µM

CCOC(=O)CC(=O)CSc1c(-c2ccccc2)c(=O)n(-c2ccccc2)c(=S)n1-c1ccccc1
inactive: HCC 2998 > 100 µM | HCT-116 > 100 µM | IGROV-1 19.8 µM | KM12 > 100 µM | M14 > 100 µM | Malme-3M > 100 µM | NCI-H522 69.7 µM | OVCAR-3 > 100 µM | RXF 393 > 100 µM | SF-295 > 100 µM | SK-MEL-28 > 100 µM | SK-OV-3 > 100 µM | SNB-19 > 100 µM | SNB-75 > 100 µM | SW-620 > 100 µM | U-251 > 100 µM | UACC-257 > 100 µM | UACC-62 > 100 µM | UO-31 > 100 µM

CC(=O)O[C@]12CCCCCC1C1(O)C(O)CCCC[C@H]12 (some centres undefined)
inactive: KM12 > 100 µM | M14 > 100 µM | Malme-3M > 100 µM | NCI-H522 > 100 µM | RPMI-8226 > 100 µM | RXF 393 > 100 µM | SF-295 > 100 µM | SK-MEL-28 > 100 µM | SK-OV-3 > 100 µM | SNB-19 > 100 µM | SNB-75 14.7 µM | SW-620 > 100 µM | U-251 > 100 µM | UACC-257 > 100 µM | UACC-62 > 100 µM | UO-31 > 100 µM

O=C(O)Cc1cccc2c1Oc1ccccc1S2
inactive: HCC 2998 > 100 µM | HCT-116 > 100 µM | IGROV-1 > 100 µM | KM12 > 100 µM | M14 > 100 µM | Malme-3M > 100 µM | OVCAR-3 > 100 µM | RPMI-8226 > 100 µM | RXF 393 > 100 µM | SF-295 > 100 µM | SK-MEL-28 > 100 µM | SK-OV-3 > 100 µM | SNB-19 > 100 µM | SNB-75 > 100 µM | SW-620 > 100 µM | U-251 > 100 µM | UACC-257 > 100 µM | UACC-62 > 100 µM | UO-31 > 100 µM
